One compound from patent publication US11497813B2, “Bortezomib conjugates and methods using same” (Frank EBETINO et al., priority 2015, dated 2022) can be followed below.

“Also recorded” adds a separate entry of the source.

The subject of one data set is osteoclasts. The experiment in a line: Osteoclast formation and bone resorption on bone slices pre-incubated with compound. It is filed as cell-based, mouse. The protocol:
FIG. 5A is a scheme of an exemplary synthesis of compound BP-Btz1. FIG. 5B is a series of images of bone slices pre-incubated with 1 μM BP-Btz1, Btz, or bisphosphonate (BP) overnight. Drug solutions were removed and bone slices were washed with PBS extensively. […] (BM) cells from UB^G76V-GFP mice were cultured on bone slices in the presence of M-CSF and RANKL for 9 days. Top images (a): GFP^+ cells were observed under a fluorescence microscope and GFP signal intensity was quantified. Middle images (b): bone slices were fixed and subjected to TRAP staining for osteoclasts (OCs). OC #/slice were counted. Bottom images (c): cells were removed from slices. Toluidine blue staining was performed and pit areas/slice were counted. FIG. 5C is a series of images of murine BM cells cultured and stained for ALP. FIG. 5D is a series of images of human MSCs cultured and stained for ALP. Murine BM cells and human MSCs were cultured in the OB-inducing medium plus different concentrations of BP-Btz1 or Btz for 4 or 6 days, respectively. Cells were stained for ALP. The ALP^+ areas were measured by Image J. *P<0.05 vs. Btz-treated cells.
As a control, the effects of the non-bioactive bisphosphonate (BP) that would be released in the bone compartment were also studied. […] In a pivotal in vitro study, this BP-Btz1 and Btz were independently incubated with bone slices for 24 hours, after which the bone slices were removed and placed in culture wells with fresh media along with osteoclast precursors. […]
1. […] Following proteasome inhibitor administration, Ub^G76V accumulates and GFP fluorescence is readily apparent. GFP^+ OCs were detected at 4 and 8 hrs after adding Btz to OC cultures, which disappeared at 24 hrs. […] The number and area of OCs and resorption pits are assessed. The appearance, intensity and distribution of GFP^+ cells on bone slices and plastic surrounding bone slices during OC formation is observed and recorded. […] Area of ALP^+ and mineralized bone nodule, and the expression levels of OB marker genes (ALP, osteocalcin, Runx2) are measured. […]

The test system of another data set is C57/B6 mice. The experiment in a line: Systemic toxicity in C57/B6 mice, daily treatment for 3 weeks. Format: in vivo. As for the experimental part:
C57/B6 mice, 7 w, BP or Btz (0.6 mg/kg), BP-Btz (1.2 mg/k), daily for 3 weeks. FIG. 29A depicts the groups and treatment used in the experimental examples. FIG. 29B depicts a table of experimental data of body weight before and after treatment. […] FIG. 29D depicts experimental data of bone marrow.

The test system of a further data set is 5TGM1-GFP myeloma cells. Kind of data set: Multiple myeloma model, 5TGM1-GFP myeloma cells in NIH-III nude mice. It is filed as in vivo, mouse. An excerpt:
FIG. 25A depicts the groups and treatment used in the experimental examples. FIG. 25B depicts a table of clinical observations. FIG. 25C depicts images of GFP imaging showing the distribution of myeloma cells. FIG. 25D is a table of experimental data showing blood IgG2b levels. FIG. 25E is a table of experimental data showing osteoblast differentiation.
A MM model was generated using tail vein injection of 5TGM1-GFP myeloma cells into 6-week-old female NIH-III nude mice. Tumor burden and bone volume were examined.

The mark [1] stands for this setting: myeloma mice, compared with Btz.

Consider `CC(C)C[C@H](NC(=O)[C@H](Cc1ccccc1)NC(=O)c1cnccn1)B1OCCN(CCOC(=O)NC(P(=O)(O)O)P(=O)(O)O)CCO1` [BP-Btz1], for which the osteoclast function entry in the data set with osteoclasts was “maintains its bioactivity on inhibition of OCs; also recorded: inhibits osteoclast function”. In the data set on osteoclasts (bone slices pre-incubated with compound (1 μM, 24 hours), removed, then osteoclast precursors in fresh media), the “Formation and activity of osteoclasts on pre-incubated bone slices” value is listed as “significantly reduced”. For the same compound, the “anti-osteoclast activity on bone slices” value in the data set on osteoclasts (in vitro studies on bone slices, compared with Btz) is reported as “anti-osteoclast activity equivalent to than Btz itself”. In addition, in the data set with C57/B6 mice (C57/B6 mice, 7 w, daily for 3 weeks), the “B cell numbers in bone marrow” value is on record as “reduces B cell numbers”. Further, in the data set with C57/B6 mice (C57/B6 mice, daily for 3 weeks, compared with Btz), the systemic toxicity entry is on record as “less systemic toxicity than Btz”. Further, the “toxic effect on neurons (dorsal root ganglia)” value in the data set on C57/B6 mice (EM images of dorsal root ganglia) is reported as “prevents toxic effect on neurons”. Besides, the “peripheral blood platelet and cell numbers (blood counts)” value in the data set with 5TGM1-GFP myeloma cells (FIG. 27, compared with Btz) is reported as “less deleterious effects than Btz; also recorded: reduces side effects on blood counts compared with Btz”. Further, the “osteoblast colonies from bone marrow cells” value in the data set with 5TGM1-GFP myeloma cells (bone marrow cells from treated myeloma mice) is “form more osteoblast colonies”. Also, in the data set on 5TGM1-GFP myeloma cells (setting [1]), the myeloma-induced bone loss result was “reduces tumor burden and myeloma-induced bone loss more effectively than Btz; also recorded: prevents myeloma-induced bone loss more effectively than Btz”; the tumor burden result is “reduces tumor burden and myeloma-induced bone loss more effectively than Btz”.
